Where two headings read alike, the source gives them in different places.
Columns and labels:
Assay type in all cases: in vivo
[1] = tested on: Diabrotica balteata; assay: Diabrotica balteata spray test; conditions: 168 h, application rate 160 μg/cavity (μg/well), wheat grains, after 7 days, read-out: efficacy
Method: Diabrotica balteata—Spray Test
(§1) Solvent: • 78 parts by weight of acetone • 1.5 parts by weight of dimethylformamide
(§2) Emulsifier: alkylaryl polyglycol ether
(§3) To produce a suitable active compound preparation, 1 part by weight of active compound is dissolved using the stated parts by weight of solvent and made up with water containing an emulsifier concentration of 1000 ppm until the desired concentration is attained. To produce further test concentrations, the formulation is diluted with emulsifier-containing water.
Pre-swollen wheat grains (Triticum aestivum) are incubated in a multiwell plate filled with agar and a little water for one day (5 seed grains per well). The germinated wheat grains are sprayed with an active compound preparation of the desired concentration. Subsequently, each cavity is infected with 10-20 beetle larvae of Diabrotica balteata.
After 7 days, the efficacy in % is determined. 100% means that all wheat plants have grown as in the untreated, uninfected control; 0% means that no wheat plant has grown.

[2] = tested on: Myzus persicae; assay: Myzus persicae oral test; conditions: 120 h, read-out: efficacy
Method: Solvent: 100 parts by weight of acetone
To produce a suitable preparation of active compound, 1 part by weight of active compound is dissolved using the specified parts by weight of solvent and made up with water until the desired concentration is attained.
50 μl of the active compound preparation are transferred into microtitre plates and made up to a final volume of 200 μl with 150 μl of IPL41 insect medium (33%+15% sugar). Subsequently, the plates are sealed with parafilm, which a mixed population of green peach aphids (Myzus persicae) within a second microtitre plate is able to puncture and imbibe the solution through it.
(§4) After 5 days, the efficacy in % is determined. 100% means that all the aphids have been killed; 0% means that no aphids have been killed.

[3] = tested on: Myzus persicae; assay: Myzus persicae spray test; conditions: foliar, 120 h, application rate 100 g/ha, Chinese cabbage leaf discs, after 5 days, read-out: efficacy
Method: Myzus persicae—Spray Test
as §1, §2, §3
Discs of Chinese cabbage leaves (Brassica pekinensis) infested by all stages of the green peach aphid (Myzus persicae) are sprayed with an active compound formulation of the desired concentration.
as §4

[4] = tested on: Spodoptera frugiperda; assay: Spodoptera frugiperda spray test; conditions: foliar, 168 h, read-out: efficacy
Method: Spodoptera frugiperda—Spray Test
(§5) Solvent: • 78.0 parts by weight of acetone • 1.5 parts by weight of dimethylformamide
as §2
To produce further test concentrations, the formulation is diluted with emulsifier-containing water.
After 7 days, the efficacy in % is determined. 100% means that all the caterpillars have been killed; 0% means that no caterpillar has been killed.

[5] = tested on: Ctenocephalides felis; assay: Ctenocephalides felis oral test; conditions: 48 h, application rate 100 ppm, in citrated cattle blood, after 2 days, read-out: efficacy (kill in %)
Method: Ctenocephalides felis—Oral Test
Solvent: Dimethyl sulfoxide
To produce a suitable active compound formulation, 10 mg of active compound are mixed with 0.5 ml of dimethyl sulfoxide. Dilution with citrated cattle blood gives the desired concentration.
About 20 unfed adult cat fleas (Ctenocephalides felis) are placed into a chamber which is closed at the top and bottom with gauze. A metal cylinder whose bottom end is closed with parafilm is placed onto the chamber. The cylinder contains the blood/active compound formulation, which can be imbibed by the fleas through the parafilm membrane.
After 2 days, the kill in % is determined. 100% means that all of the fleas have been killed; 0% means that none of the fleas have been killed.

[6] = tested on: Phaedon cochleariae; assay: Phaedon cochleariae spray test; conditions: foliar, 168 h, read-out: efficacy
Method: Phaedon cochleariae—Spray Test
as §5, §2, §3
Discs of Chinese cabbage leaves (Brassica pekinensis) are sprayed with an active compound formulation of the desired concentration and, after drying, populated with larvae of the mustard beetle (Phaedon cochleariae).
After 7 days, the efficacy in % is determined. 100% means that all the beetle larvae have been killed; 0% means that no beetle larvae have been killed.

[7] = application rate 4 ppm, after 5 days
[8] = application rate 100 g/ha, maize leaf discs, after 7 days
[9] = application rate 100 g/ha, Chinese cabbage leaf discs, after 7 days

Row | SMILES | pest or weed control at 160 µg/well [1] | pest or weed control at 4 ppm [2, 7] | pest or weed control at 100 g/ha [3] | pest or weed control at 100 g/ha [4, 8] | pest or weed control at 100 ppm [5] | pest or weed control at 100 g/ha [6, 9] | pest or weed control at 4 ppm [2] | pest or weed control at 100 g/ha ([6]; in Brassica rapa) | pest or weed control at 100 g/ha ([4]; in Zea mays)
1 | CCS(=O)(=O)c1c(-c2nc3cc(C(F)(F)F)nnc3n2C)ncc2ccc(C)cc12 [Example I-044] | 100% | 100% | 90% |  |  |  |  |  | 
2 | CCS(=O)(=O)c1c(-c2nc3cc(C(F)(F)C(F)(F)F)cnc3n2C)ncc2cc(OCC(C)(F)F)ccc12 [Example I-053] | 100% |  |  | 100% |  |  |  |  | 
3 | CCS(=O)(=O)c1c(-c2nc3cc(C(F)(F)C(F)(F)F)cnc3n2C)ncc2c(C#N)cccc12 [Example I-030] | 100% | 100% |  | 100% |  |  |  |  | 
4 | CCS(=O)(=O)c1c(-c2nc3cc(C(F)(F)C(F)(F)F)nnc3n2C)ncc2c(Br)cccc12 [Example I-046] | 100% | 100% |  | 100% |  |  |  |  | 
5 | CCS(=O)(=O)c1c(-c2nc3cc(C(F)(F)C(F)(F)F)cnc3n2C)ncc2c(Cl)cccc12 [Example I-031] | 100% | 100% |  | 100% |  |  |  |  | 
6 | CCS(=O)(=O)c1c(-c2nc3cc(C(F)(F)F)ncc3n2C)ncc2c(C(F)(F)F)cccc12 [Example I-013] |  | 100% | 100% | 100% | 100% | 100% |  |  | 
7 | CCS(=O)(=O)c1c(-c2nc3cc(C(F)(F)F)cnc3n2C)ncc2cc(NC(=O)OC)ccc12 [Example I-022] |  |  |  |  |  |  | 100% | 100% | 100%
8 | CCS(=O)(=O)c1c(-c2nc3cc(C(F)(F)F)cnc3n2C)ncc2cc(NC(C)=O)ccc12 [Example I-035] |  | 100% | 90% |  |  | 100% |  |  | 
9 | CCS(=O)(=O)c1c(-c2nc3cc(C(F)(F)F)nnc3n2C)ncc2ccc(Cl)cc12 [Example I-039] | 100% | 100% |  | 100% |  |  |  |  | 
10 | CCS(=O)(=O)c1c(-c2nc3cc(C(F)(F)C(F)(F)F)nnc3n2C)ncc2cc(Br)ccc12 [Example I-043] | 100% | 100% | 90% | 100% |  |  |  |  | 
11 | CCS(=O)(=O)c1c(-c2nc3cc(S(=O)(=O)C(F)(F)F)cnc3n2C)ncc2cc(Br)ccc12 [Example I-016] | 100% | 100% |  | 100% |  |  |  |  | 
12 | CCS(=O)(=O)c1c(-c2nc3cc(C(F)(F)C(F)(F)F)cnc3n2C)ncc2cc(C3CC3)ccc12 [Example I-050] | 100% | 90% |  | 100% |  |  |  |  | 
13 | CCS(=O)(=O)c1c(-c2nc3cc(C(F)(F)C(F)(F)F)cnc3n2C)ncc2cc(OCC(F)F)ccc12 [Example I-049] | 80% |  |  | 100% |  |  |  |  | 
14 | CCS(=O)(=O)c1c(-c2nc3cc(C(F)(F)C(F)(F)F)cnc3n2C)ncc2cc(OCC(F)(F)F)ccc12 [Example I-048] | 100% |  |  | 100% |  |  |  |  | 
15 | CCS(=O)(=O)c1c(-c2nc3cc(OC(F)(F)F)cnc3n2C)ncc2c(C(F)(F)F)cccc12 [Example I-024] |  | 100% | 90% | 100% | 80% | 100% |  |  | 
16 | CCS(=O)(=O)c1c(-c2nc3cc(C(F)(F)C(F)(F)F)ncc3n2C)ncc2c(Br)cccc12 [Example I-019] | 100% | 100% |  | 100% |  |  |  |  | 
17 | CCS(=O)(=O)c1c(-c2nc3cc(C(F)(F)F)cnc3n2C)ncc2ccc(C(F)(F)F)cc12 [Example I-021] |  | 100% |  | 100% |  | 100% |  |  | 
18 | CCS(=O)(=O)c1c(-c2nc3cc(C(F)(F)F)nnc3n2C)ncc2cc(C)ccc12 [Example I-003] |  | 100% | 90% |  | 80% |  |  |  | 
19 | CCS(=O)(=O)c1c(-c2nc3cc(S(=O)(=O)C(F)(F)F)cnc3n2C)ncc2c(Br)cccc12 [Example I-029] | 100% | 100% | 90% | 100% |  |  |  |  | 
20 | CCS(=O)(=O)c1c(-c2nc3cc(C(F)(F)C(F)(F)F)nnc3n2C)ncc2cc(C#N)ccc12 [Example I-051] | 100% | 100% |  | 100% |  |  |  |  | 
21 | CCS(=O)(=O)c1c(-c2nc3cc(C(F)(F)F)cnc3n2C)ncc2cc(SCC(F)(F)F)ccc12 [Example I-002] |  | 100% | 90% |  |  | 100% |  |  | 
22 | CCS(=O)(=O)c1c(-c2nc3cc(C(F)(F)F)ncc3n2C)ncc2c(Br)cccc12 [Example I-018] | 100% | 100% | 100% |  |  |  |  |  | 
23 | CCS(=O)(=O)c1c(-c2nc3cc(C(F)(F)F)cnc3n2C)ncc2cc(OC)ccc12 [Example I-033] |  | 100% |  | 100% |  |  |  |  | 
24 | CCS(=O)(=O)c1c(-c2nc3cc(C(F)(F)F)nnc3n2C)ncc2cc(Br)ccc12 [Example I-028] | 80% | 100% | 90% | 100% |  |  |  |  | 
25 | CCS(=O)(=O)c1c(-c2nc3cc(C(F)(F)F)cnc3n2C)ncc2cc(C#N)ccc12 [Example I-001] |  | 100% | 90% | 100% |  | 100% |  |  | 
26 | CCS(=O)(=O)c1c(-c2nc3cc(C(F)(F)F)nnc3n2C)ncc2ccc(C(F)(F)F)cc12 [Example I-045] | 100% | 100% | 100% | 100% |  |  |  |  | 
27 | CCS(=O)(=O)c1c(-c2nc3cc(C(F)(F)C(F)(F)F)cnc3n2C)ncc2c(C(F)(F)F)cccc12 [Example I-014] |  | 90% | 100% | 100% |  | 100% |  |  | 
28 | CCS(=O)(=O)c1c(-c2nc3cc(C(F)(F)C(F)(F)F)nnc3n2C)ncc2c(Cl)cccc12 [Example I-052] | 100% | 100% |  | 100% |  |  |  |  | 
29 | CCS(=O)(=O)c1c(-c2nc3cc(C(F)(F)F)cnc3n2C)ncc2cc(C3CC3)ccc12 [Example I-007] |  | 100% |  | 67% |  | 100% |  |  | 
30 | CCS(=O)(=O)c1c(-c2nc3cc(C(F)(F)F)cnc3n2C)ncc2cc(NC(=O)C3CC3)ccc12 [Example I-038] |  | 100% |  | 100% |  | 100% |  |  | 

From US20230060425A1, “FUSED BICYCLIC HETEROCYCLE DERIVATIVES AS PESTICIDES” (Bayer Aktiengesellschaft, priority 2019, published 2023)
